Experimental data: ChEMBL document CHEMBL1201862, “PubChem BioAssay data set” (2004)
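A five-concentration, 48-hour dose response in 96-well plates underlies each endpoint, interpolated linearly between surrounding concentrations. GI50 marks 50% less growth.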 The source made the active and inactive calls. No stated cut-off is given here; in the data, active = GI50 up to about 1.1 µM and inactive = higher.

Tests used:
Test in all cases: NCI anticancer screen, dose series, 48 h
LOX IMVI = test system: LOX IMVI
DMS-273 = test system: DMS-273
EKVX = test system: EKVX
SNB-78 = test system: SNB-78
OVCAR-4 = test system: OVCAR-4
HCT-15 = test system: HCT-15
SK-MEL-2 = test system: SK-MEL-2
IGROV-1 = test system: IGROV-1
DLD-1 = test system: DLD-1
NCI-H226 = test system: NCI-H226
NCI-H460 = test system: NCI-H460
RPMI-8226 = test system: RPMI-8226
COLO 205 = test system: COLO 205
RXF 393 = test system: RXF 393
M14 = test system: M14
UO-31 = test system: UO-31
OVCAR-3 = test system: OVCAR-3
SW-620 = test system: SW-620
HT-29 = test system: HT-29
A498 = test system: A498
NCI-H522 = test system: NCI-H522
SNB-75 = test system: SNB-75
SF-539 = test system: SF-539
NCI-H23 = test system: NCI-H23
U-251 = test system: U-251
DMS-114 = test system: DMS-114
K562 = test system: K562
HOP-62 = test system: HOP-62
M19-MEL = test system: M19-MEL
SR = test system: SR
LXFL 529 = test system: LXFL 529
UACC-257 = test system: UACC-257
TK-10 = test system: TK-10
KM-20L2 = test system: KM-20L2
HOP-92 = test system: HOP-92
SNB-19 = test system: SNB-19
SK-OV-3 = test system: SK-OV-3
MOLT-4 = test system: MOLT-4
Malme-3M = test system: Malme-3M
UACC-62 = test system: UACC-62
SF-295 = test system: SF-295
HL-60 = test system: HL-60
CCRF-CEM = test system: CCRF-CEM
KM12 = test system: KM12
HCT-116 = test system: HCT-116
SN12C = test system: SN12C
OVCAR-5 = test system: OVCAR-5
SF-268 = test system: SF-268
XF498 = test system: XF498
SK-MEL-5 = test system: SK-MEL-5
786-0 = test system: 786-0
ACHN = test system: ACHN
A549 = test system: A549
OVCAR-8 = test system: OVCAR-8
SK-MEL-28 = test system: SK-MEL-28
HCC 2998 = test system: HCC 2998
CAKI-1 = test system: CAKI-1

For `C1=C(c2ccccc2)SC(N2CCCCC2)S1` (centres undefined), the GI50 (LOX IMVI) was 72.9 µM (inactive), the GI50 (DMS-273) was > 100 µM (inactive) and the GI50 (EKVX) was 86.7 µM (inactive). For the same compound, the GI50 (SNB-78) was > 100 µM (inactive), the GI50 (OVCAR-4) was > 100 µM (inactive) and the GI50 (HCT-15) was over 100 µM. The GI50 (SK-MEL-2) was > 100 µM (inactive), the GI50 (IGROV-1) was > 100 µM (inactive) and the GI50 (DLD-1) was > 100 µM (inactive). The GI50 (NCI-H226) was > 100 µM (inactive), the GI50 (NCI-H460) was > 100 µM (inactive) and the GI50 (RPMI-8226) was 59.7 µM (inactive). For the same compound, the GI50 (COLO 205) was > 100 µM (inactive), the GI50 (RXF 393) was > 100 µM (inactive) and the GI50 (M14) was > 100 µM (inactive). The GI50 (UO-31) was > 100 µM (inactive), the GI50 (OVCAR-3) was > 100 µM (inactive) and the GI50 (SW-620) was > 100 µM (inactive). The GI50 (HT-29) was > 100 µM (inactive), the GI50 (A498) was > 100 µM (inactive) and the GI50 (NCI-H522) was 66.4 µM (inactive). For the same compound, the GI50 (SNB-75) was 55.6 µM (inactive), the GI50 (SF-539) was > 100 µM (inactive) and the GI50 (NCI-H23) was > 100 µM (inactive). For the same compound, the GI50 (U-251) was > 100 µM (inactive), the GI50 (DMS-114) was 60.1 µM (inactive) and the GI50 (K562) was 52.2 µM (inactive). For the same compound, the GI50 (HOP-62) was > 100 µM (inactive), the GI50 (M19-MEL) was 68.1 µM (inactive) and the GI50 (SR) was 90.8 µM (inactive). The GI50 (LXFL 529) was 77.3 µM (inactive), the GI50 (UACC-257) was > 100 µM (inactive) and the GI50 (TK-10) was > 100 µM (inactive). For the same compound, the GI50 (KM-20L2) was > 100 µM (inactive), the GI50 (HOP-92) was > 100 µM (inactive) and the GI50 (SNB-19) was > 100 µM (inactive). The GI50 (SK-OV-3) was > 100 µM (inactive), the GI50 (MOLT-4) was 81.5 µM (inactive) and the GI50 (Malme-3M) was 88.7 µM (inactive). For the same compound, the GI50 (UACC-62) was > 100 µM (inactive), the GI50 (SF-295) was > 100 µM (inactive) and the GI50 (HL-60) was 69 µM (inactive). The GI50 (CCRF-CEM) was 95.5 µM (inactive), the GI50 (KM12) was > 100 µM (inactive) and the GI50 (HCT-116) was > 100 µM (inactive). The GI50 (SN12C) was > 100 µM (inactive), the GI50 (OVCAR-5) was > 100 µM (inactive) and the GI50 (SF-268) was > 100 µM (inactive). The GI50 (XF498) was > 100 µM (inactive).

`CN1CCc2cc(O)c3cc2C1Cc1ccc(cc1)Oc1cc(ccc1O)CC1c2c(cc4c(c2O3)OCO4)CCN1C` (centres undefined) was tested, and the GI50 (DMS-273) was 24.8 µM (inactive), the GI50 (EKVX) was 18.1 µM (inactive) and the GI50 (SK-MEL-5) was 18.9 µM (inactive). For the same compound, the GI50 (SNB-78) was > 100 µM (inactive), the GI50 (OVCAR-4) was 28.8 µM (inactive) and the GI50 (786-0) was 58.2 µM (inactive). The GI50 (HCT-15) was 22.5 µM, the GI50 (SK-MEL-2) was 16.1 µM (inactive) and the GI50 (IGROV-1) was 25.6 µM (inactive). The GI50 (DLD-1) was 75.3 µM (inactive), the GI50 (NCI-H226) was 22.9 µM (inactive) and the GI50 (NCI-H460) was 46.2 µM (inactive). For the same compound, the GI50 (COLO 205) was 13.5 µM (inactive), the GI50 (RXF 393) was 11.2 µM (inactive) and the GI50 (ACHN) was 28.7 µM (inactive). For the same compound, the GI50 (M14) was 16.8 µM (inactive), the GI50 (UO-31) was 1.6 µM (inactive) and the GI50 (OVCAR-3) was 75 µM (inactive). The GI50 (A549) was 45.7 µM (inactive), the GI50 (HT-29) was 21.2 µM (inactive) and the GI50 (OVCAR-8) was 19.8 µM (inactive). For the same compound, the GI50 (SK-MEL-28) was 21.3 µM (inactive), the GI50 (SNB-75) was 13.4 µM (inactive) and the GI50 (SF-539) was 17.3 µM (inactive). For the same compound, the GI50 (NCI-H23) was > 100 µM (inactive), the GI50 (U-251) was 30.1 µM (inactive) and the GI50 (DMS-114) was 18.2 µM (inactive). For the same compound, the GI50 (K562) was 17.2 µM (inactive), the GI50 (SR) was 28.8 µM (inactive) and the GI50 (TK-10) was 24.2 µM (inactive). The GI50 (KM-20L2) was 18.2 µM (inactive), the GI50 (SNB-19) was 44.6 µM (inactive) and the GI50 (MOLT-4) was 24.3 µM (inactive). For the same compound, the GI50 (UACC-62) was 24.2 µM (inactive), the GI50 (SF-295) was 21.5 µM (inactive) and the GI50 (HL-60) was 16.3 µM (inactive). The GI50 (CCRF-CEM) was 27.7 µM (inactive), the GI50 (KM12) was 29.9 µM (inactive) and the GI50 (HCT-116) was 36.6 µM (inactive). The GI50 (HCC 2998) was 19.5 µM (inactive), the GI50 (SN12C) was 32.9 µM (inactive) and the GI50 (OVCAR-5) was 27 µM (inactive). The GI50 (SF-268) was 33.1 µM (inactive) and the GI50 (XF498) was 14.4 µM (inactive).

`CN(C)C(=S)/N=c1\ss/c(=N\C(=S)N(C)C)n1-c1ccc(Cl)cc1` was tested, and the GI50 (LOX IMVI) was > 100 µM (inactive), the GI50 (DMS-273) was 39.9 µM (inactive) and the GI50 (EKVX) was > 100 µM (inactive). For the same compound, the GI50 (SNB-78) was > 100 µM (inactive), the GI50 (OVCAR-4) was > 10 µM (inactive) and the GI50 (786-0) was > 100 µM (inactive). For the same compound, the GI50 (HCT-15) was over 100 µM, the GI50 (SK-MEL-2) was > 100 µM (inactive) and the GI50 (IGROV-1) was > 100 µM (inactive). For the same compound, the GI50 (NCI-H226) was > 100 µM (inactive), the GI50 (NCI-H460) was > 100 µM (inactive) and the GI50 (RPMI-8226) was > 100 µM (inactive). For the same compound, the GI50 (COLO 205) was > 100 µM (inactive), the GI50 (RXF 393) was > 100 µM (inactive) and the GI50 (ACHN) was > 100 µM (inactive). The GI50 (M14) was > 100 µM (inactive), the GI50 (UO-31) was > 100 µM (inactive) and the GI50 (OVCAR-3) was > 100 µM (inactive). The GI50 (SW-620) was > 100 µM (inactive), the GI50 (A549) was > 100 µM (inactive) and the GI50 (HT-29) was > 100 µM (inactive). For the same compound, the GI50 (A498) was > 100 µM (inactive), the GI50 (OVCAR-8) was > 100 µM (inactive) and the GI50 (NCI-H522) was 87.9 µM (inactive). The GI50 (SK-MEL-28) was > 100 µM (inactive), the GI50 (SNB-75) was 3.33 µM (inactive) and the GI50 (SF-539) was > 100 µM (inactive). For the same compound, the GI50 (NCI-H23) was > 100 µM (inactive), the GI50 (U-251) was > 100 µM (inactive) and the GI50 (K562) was > 100 µM (inactive). For the same compound, the GI50 (HOP-62) was > 100 µM (inactive), the GI50 (SR) was > 100 µM (inactive) and the GI50 (LXFL 529) was > 100 µM (inactive). The GI50 (UACC-257) was > 100 µM (inactive), the GI50 (TK-10) was > 100 µM (inactive) and the GI50 (KM-20L2) was > 100 µM (inactive). The GI50 (HOP-92) was > 100 µM (inactive), the GI50 (SNB-19) was > 100 µM (inactive) and the GI50 (SK-OV-3) was > 100 µM (inactive). The GI50 (MOLT-4) was > 100 µM (inactive), the GI50 (UACC-62) was > 100 µM (inactive) and the GI50 (SF-295) was > 100 µM (inactive). For the same compound, the GI50 (HL-60) was > 100 µM (inactive), the GI50 (CCRF-CEM) was > 100 µM (inactive) and the GI50 (KM12) was > 100 µM (inactive). The GI50 (CAKI-1) was > 100 µM (inactive), the GI50 (HCT-116) was > 100 µM (inactive) and the GI50 (SN12C) was > 100 µM (inactive). For the same compound, the GI50 (OVCAR-5) was > 100 µM (inactive), the GI50 (SF-268) was > 100 µM (inactive) and the GI50 (XF498) was > 100 µM (inactive).
